Measured values as given in PubChem BioAssay (NCI).
“And” between values parts separate entries of the source, which are not always exact repeats. Equal entries are not always repeated.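 1) Cells in 96-well plates. 2) Compound, 48 h, 5 concentrations. 3) Linear interpolation between surrounding doses. 4) Unreached endpoint = highest concentration. GI50 = concentration required for 50% inhibition of growth. Definition used: TGI = concentration required for complete inhibition of growth.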

Experiments:
Assay in all cases: DTP human tumour cell line panel, 48 h
SK-OV-3 ovarian = test system: SK-OV-3 ovarian
HL-60(TB) leukemia = test system: HL-60(TB) leukemia
PC-3 prostate = test system: PC-3 prostate
NCI-H226 lung = test system: NCI-H226 lung
SK-MEL-2 melanoma = test system: SK-MEL-2 melanoma
OVCAR-5 ovarian = test system: OVCAR-5 ovarian
MDA-MB-435 = test system: MDA-MB-435
SW-620 colon = test system: SW-620 colon
LOX IMVI melanoma = test system: LOX IMVI melanoma
RXF 393 renal = test system: RXF 393 renal

Row | SMILES | GI50 (SK-OV-3 ovarian) | TGI (SK-OV-3 ovarian) | GI50 (HL-60(TB) leukemia) | TGI (HL-60(TB) leukemia) | GI50 (PC-3 prostate) | TGI (PC-3 prostate) | GI50 (NCI-H226 lung) | TGI (NCI-H226 lung) | GI50 (SK-MEL-2 melanoma) | TGI (SK-MEL-2 melanoma) | GI50 (OVCAR-5 ovarian) | TGI (OVCAR-5 ovarian) | GI50 (MDA-MB-435) | TGI (MDA-MB-435) | GI50 (SW-620 colon) | TGI (SW-620 colon) | GI50 (LOX IMVI melanoma) | TGI (LOX IMVI melanoma) | GI50 (RXF 393 renal) | TGI (RXF 393 renal)
1 | CCOc1cc(/C=C/C(=O)CC(=O)/C=C/c2ccc(OC(=O)CNCCN(CC)CC)c(OCC)c2)ccc1OC(=O)CNCCN(CC)CC | 5.39 µM | 20.8 µM | 1.16 µM | 4.25 µM | 1.62 µM | 10.7 µM | 2.15 µM | 5.17 µM | 1.68 µM | 3.26 µM | 2.27 µM | 5.43 µM | 1.56 µM | 6.31 µM | 1.29 µM | 3.41 µM | 1.05 µM | 2.44 µM | 0.681 µM | 2.03 µM
2 | C=C(Cl)C(Cl)(CBr)CCC(Br)C(C)(C)Cl (stereo unspecified) | – | 62.7 µM | – | 3 µM and 3.02 µM and 6.99 µM | – | 2.42 µM and 2.17 µM and 3.02 µM | – | 38.4 µM and 32.5 µM and 37.9 µM | – | 4.17 µM | – | 8.38 µM and 4.14 µM and 29.8 µM | – | 6.56 µM and 4.63 µM and 23.4 µM | – | 6.08 µM and 4.35 µM and 27.7 µM | – | 12.4 µM and 29.7 µM and 33.6 µM | – | 3.92 µM and 0.991 µM and 4.49 µM
3 | CCN(CCCl)c1cc(CN(C)C)cc(NC(=O)c2cc(C(=O)Nc3cc(CN(C)C)cc(N(CC)CCCl)c3)n(C)n2)c1 | – | 3.3 µM | – | 4.04 µM | – | 0.492 µM | – | 4.16 µM | – | 3.3 µM | – | 9.36 µM | – | 1.2 µM | – | 0.304 µM | – | 0.26 µM | – | 2.08 µM
4 | O=C([O-])C1([n+]2c(-c3ccccc3)cc(-c3ccccc3)cc2-c2ccccc2)CC1 | – | – | – | 68.4 µM | – | > 100 µM | – | > 100 µM | – | – | – | > 100 µM | – | 50.7 µM | – | > 100 µM | – | > 100 µM | – | > 100 µM
5 | CC(=O)OC1CC[C@@]2(C)C(=CC[C@@H]3[C@@H]2CC[C@]2(C)C(OC(C)=O)[C@H](n4ccnc4)C[C@@H]32)C1 (stereo partly specified) | – | – | – | 35.6 µM | – | 39.5 µM | – | > 100 µM | – | 34.2 µM | – | > 100 µM | – | 31.6 µM | – | > 100 µM | – | 37.7 µM | – | > 100 µM
6 | COc1ccc2c(C(=O)c3c(C)n(CCN4CCOCC4)c4ccccc34)cccc2c1 | – | > 100 µM | – | 23.4 µM | – | 96.6 µM | – | > 100 µM | – | 55.9 µM | – | > 100 µM | – | 22.8 µM | – | 55.4 µM | – | 45.4 µM | – | 91.2 µM
7 | N=C(N)c1ccc(N=Nc2c(O)ccc3cc(O)ccc23)cc1 | – | > 100 µM | – | > 100 µM | – | > 100 µM | – | > 100 µM | – | > 100 µM | – | > 100 µM | – | > 100 µM | – | > 100 µM | – | – | – | > 100 µM
8 | COC(=O)c1ccccc1/C=C1\Cc2ccc3ccccc3c2C1C (stereo unspecified) | – | – | – | > 100 µM | – | > 100 µM | – | > 100 µM | – | > 100 µM | – | > 100 µM | – | > 100 µM | – | > 100 µM | – | > 100 µM | – | > 100 µM
9 | CCOC(=O)C1=C(C)N(CC(C)C)C2(O)C(OC)CC(=O)C3C(=O)N(c4ccccc4)C(=O)C132 (stereo unspecified) | – | – | – | 69.2 µM | – | > 100 µM | – | 57.7 µM | – | 51.1 µM | – | > 100 µM | – | > 100 µM | – | 77.9 µM | – | > 100 µM | – | 54.5 µM
10 | Fc1ccc(C(OCCN2CC3CC2CN3)c2ccc(F)cc2)cc1 (stereo unspecified) | – | > 100 µM | – | > 100 µM | – | > 100 µM | – | > 100 µM | – | 38.1 µM | – | – | – | 53.8 µM | – | > 100 µM | – | > 100 µM | – | > 100 µM
11 | COCCOCCOCCC(=O)NC1CC2CCC1(C)C2(C)C (stereo unspecified) | – | > 100 µM | – | > 100 µM | – | > 100 µM | – | > 100 µM | – | – | – | > 100 µM | – | > 100 µM | – | > 100 µM | – | > 100 µM | – | > 100 µM
12 | Nc1ncc(Sc2ccccc2C(=O)O)s1 | – | – | – | > 100 µM | – | > 100 µM | – | > 100 µM | – | > 100 µM | – | > 100 µM | – | > 100 µM | – | > 100 µM | – | > 100 µM | – | > 100 µM
13 | CCN(CC)Cc1ccc(Nc2c3ccccc3nc3ccccc23)cc1 | – | 5.56 µM | – | > 100 µM | – | 3.68 µM | – | – | – | 7.27 µM | – | 5.46 µM | – | 4.17 µM | – | 4.12 µM | – | 3.3 µM | – | 3.96 µM
14 | O=c1[nH]nc(Cc2ccccc2)n1C1CC1 | – | > 100 µM | – | > 100 µM | – | > 100 µM | – | > 100 µM | – | – | – | > 100 µM | – | > 100 µM | – | > 100 µM | – | > 100 µM | – | > 100 µM
15 | O=C1c2ccccc2/C=C\C(c2ccccc2)=N/N1c1ccccc1Cl | – | – | – | 54.8 µM | – | 28.6 µM | – | > 100 µM | – | > 100 µM | – | > 100 µM | – | 16.8 µM | – | > 100 µM | – | > 100 µM | – | 47.7 µM
16 | O=S(=O)(/N=C(\NO)Nc1ccc(Cl)cc1)c1cc(S(=O)(=O)c2ccccc2)cs1 | – | – | – | 7.19 µM | – | 33.9 µM | – | 51.6 µM | – | 45.9 µM | – | 42.5 µM | – | 29.9 µM | – | 49.2 µM | – | 39 µM | – | 31 µM
17 | COC(=O)C1(Cc2ccccc2)Cc2c(C)ccc(C)c2C1=O (stereo unspecified) | – | > 100 µM | – | 54 µM | – | 78.2 µM | – | 97.3 µM | – | – | – | > 100 µM | – | 43.4 µM | – | > 100 µM | – | 34.6 µM | – | 83.1 µM
